# What was measured:
# [1] = tested on: SPCs; experiment: In situ perfusion of mouse hind limb, CFU-SPC in perfusate; type: in vivo, mice; settings: for SPC mobilization from the bone marrow: FIG. 21d
# Experimental: a, overview of procedures set up for identifying the direct mobilization of progenitor cells from the femoral bone marrow. […] 24 hours after the last injection, mice underwent perfusion of the right hind limb. CXCR4 antagonist (AMD3100 0.1 mM, closed bars) or vehicle (PBS, open bars) were then infused directly into the femoral artery for 10 minutes. The hind limb was then perfused for a further 50 minutes to allow collection of b, CFU-HPC; c, CFU-EPC; or d, CFU-SPC; via the femoral vein. CFU-HPC, CFU-EPC, and CFU-SPC are shown as total number of colonies collected in the perfusate. n=5-8 mice per group. Data: means±s.e.m. *: P<0.05, **: P<0.01, ***: P<0.001 between selected groups.
# (§2) 24 hours after the last injection, mice were administered a CXCR4 antagonist (AMD3100, 5 mg/kg i.p), KC (30 μg/kg i.v.) or vehicle and blood was collected via cardiac puncture 60 minutes later for enumeration of circulating leukocyte, HPC, EPC, and stromal progenitor cell levels.
# On day 5 following pre-treatment of growth factors, mice were anaesthetized and the femoral artery and vein exposed. The hind limb was isolated by occlusion of the external iliac artery, superficial epigastric and muscular branch. Polyethylene cannulae (Portex, London, UK) were immediately inserted into the femoral artery and vein as previously described (Martin et al., 2003; 2006; Wengner et al., 2008). Perfusion buffer was infused via the arterial cannula and removed from the venous cannula using a Minipuls peristaltic pump (Anachem, Luton, UK). The hind limb was perfused for an initial 2 minutes to remove remaining blood from the vasculature and then perfused for a further 60 min with vehicle alone or the CXCR4 antagonist (AMD3100, 0.1 mM), infused over the first 10 minutes using an infusion/withdrawal pump (Harvard Instruments, U.K.).
# The perfusate was centrifuged and re-suspended in DMEM+20% FBS. In some experiments citrated blood was obtained via cardiac bleed and lysed for red blood cells. Bone marrow and perfusate cytospins, and blood smears were stained using DiffQuik for the enumeration of mononuclear cells, eosinophils, and neutrophils. Bone marrow, perfusate and lysed blood were then used for assays outlined below to enumerate HPCs (CFU-HPC), EPCs (CFU-EPC), SPCs (CFU-F).
# 5×10^5 cells were added to Mesencult media including supplements (Stemcell Technologies). Dishes were incubated for 7 days before media was changed, and then incubated for a further 14 days before the enumeration of SPC colonies (CFU-F).
# (§3) The total number of colony forming units mobilized was calculated according to the number of colonies per plate×by the total number of leukocytes mobilized/number of cells seeded.
# [2] = tested on: CXCR2; experiment: Flow cytometry of CXCR2 expression on bone marrow neutrophils; type: in vivo; settings: VEGF-treated mice, FIG. 24d
# Experimental: (§1) For flow cytometric analysis, cells were re-suspended in FACS buffer. To identify neutrophils in the bone marrow, surface expression of the granulocyte marker Ly-6G/Ly6C (Gr-1) was determined. Neutrophils were identified as Gr-1^high positive cells with a characteristic high side scatter profile. HPCs residing in the BM were selected as being negative for lineage (Lin^−) markers: CD3e, CD11b, CD45R, Ly-76, and Gr-1 and positive for Sca-1 (Lin^− Sca-1^+ cells) (Gerber et al., 2002; Uchida, et al., 1997). EPCs residing in the BM were selected as being positive for both CD34 and VEGFR2 (CD34^+ VEGFR2^+ cells) (Asahara et al., 1997; Yoon et al., 2005). Furthermore, neutrophils were stained for the surface expression of CXCR2, whilst Lin^− Sca-1^+ cells and CD34^+ VEGFR2^+ cells were stained for the cell surface expression of CXCR4. Samples were then washed and then quantified on a FACSAria cell sorter (BD Biosciences, Oxford, United Kingdom) and analysed using FACSDiva software.
# [3] = tested on: neutrophils; settings: VEGF-treated mice, KC 30 nM, FIG. 24e
# Experimental: Bone marrow-derived neutrophils were tested for migration towards KC (30 nM) using 3 μm pore sized transwell chemotaxis plates as previously described (Wengner et al., 2008). To measure HPC and EPC migration towards SDF-1α, murine bone marrow cells (2×10^6 cells) were placed in the upper chamber of transwell inserts (5 μm pore size Corning). These in turn were placed in individual wells of a 24 well cell culture plate with 30 nM SDF-1α added. Chambers were incubated for 4 hours at 37° C. and migrated cells were then placed in methocult or EPC colony media as described above for the enumeration of CFU-HPC and CFU-EPC respectively.
# [4] = tested on: CD34^+ VEGFR2^+ EPCs; experiment: PI staining, cell cycle status of CD34+ VEGFR2+ EPCs; type: in vivo, mice; settings: treated 4 days, FIG. 25d
# Experimental: as §1, with “Furthermore, neutrophils were stained for the surface expression of CXCR2, whilst Lin^− Sca-1^+ cells and CD34^+ VEGFR2^+ cells were stained for the cell surface expression of CXCR4.” left out
# Lin^− Sca-1^+ cells and CD34^+ VEGFR2^+ cells were analysed to determine their cell cycling status using a propidium iodide (PI) stain. […] A dotplot of PI-Width against PI-Area was recorded. Aggregates of cells were detected as cells having a larger PI-W profile and were not included in the gate. […] To calculate the percentage of cells undergoing active cell cycling, a marker was set to exclude the G0/G1 peak and the percentage of cells in S/G2/M was calculated.
# [5] = tested on: HPCs; experiment: Circulating CFU-HPC in blood; settings: agent alone (AMD3100 5 mg/kg i.p., blood at 60 min; G-CSF or VEGF once daily for 4 days), FIG. 20b
# Experimental: a, Experimental protocol. […] 24 hours after the last injection, mice were administered a CXCR4 antagonist (AMD3100 5 mg/kg i.p, closed bars) or vehicle (PBS, open bars). 60 minutes later, blood was taken for analysis of circulating: b, CFU-HPC; c, CFU-EPC; and d, CFU-SPC. CFU-HPC, CFU-EPC, and CFU-SPC are shown as number of colonies per ml blood. n=5-8 mice per group. Data: means±s.e.m. *: P<0.05, **: P<0.01, ***: P<0.001 between selected groups.
# as §2
# In some experiments citrated blood was obtained via cardiac bleed and lysed for red blood cells. […] Bone marrow, perfusate and lysed blood were then used for assays outlined below to enumerate HPCs (CFU-HPC), EPCs (CFU-EPC), SPCs (CFU-F).
# 5×10^4 cells were added to Methocult medium (Stem cell technologies) supplemented with specific cytokines and growth factors to enable formation of CFU-HPC. Mobilized cells were incubated for 11 days before quantification.
# as §3
# [6] = tested on: endothelial progenitor cells (EPC); experiment: Example 1: EPC mobilisation, hind limb bone marrow perfusion and circulating blood, CFU-EPC assay; settings: G-CSF or VEGF 2.5 μg on 4 consecutive days, then AMD3100; perfusate and blood, FIGS. 5-8
# Experimental: 24 hours after the last injection, mice were administered a CXCR4 antagonist (AMD3100, 5 mg/kg i.p), or vehicle and blood was collected via cardiac puncture 1 hour later for enumeration of circulating leukocyte, HPC, EPC and MSC levels.
# On day 5, mice were anaesthetized with urethane (25% 0.2 ml i.p.) and the femoral artery and vein exposed. The hind limb was isolated by occlusion of the external iliac artery, superficial epigastric and muscular branch with 5/0 braided silk suture. Polyethylene cannulae (0.61 mm OD, Portex, London, UK) were immediately inserted into the femoral artery and vein and tied in place with 5/0 braided silk suture. Perfusion buffer (modified Krebs-Ringer bicarbonate buffer) at 37° C. was infused (0.15 ml/min) via the arterial cannula and removed from the venous cannula using a Minipuls peristaltic pump (Anachem, Luton, UK). The hind limb was perfused for an initial 10 minutes to remove remaining blood from the vasculature and then perfused for a further 60 min with vehicle alone or AMD3100, a CXCR4 antagonist (0.1 mM, Sigma UK) infused over the first 10 minutes using an infusion/withdrawal pump (Harvard Instruments, U.K.).
# The perfusate was collected and centrifuged and the cell pellet re-suspended in Dulbecco's modified eagles medium (DMEM) with 20% fetal bovine serum (FBS). A total cell count was performed before the perfusate was lysed for red blood cells, re-suspended again in DMEM (20% FBS) and used for assays outlined below to enumerate haematopoietic progenitor cells (CFU-HPC), endothelial progenitor cells (CFU-EPC), and leukocyte populations.
# In some experiments blood was taken to enumerate HPCs, EPCs and leukocytes. A total cell count was performed on citrated blood before being lysed for red blood cells and re-suspended in DMEM (20% FBS).
# Assay was performed in duplicate. Dishes were incubated for 7 days before media was changed, and then incubated for a further 14 days before the enumeration of late outgrowth endothelial progenitor cells. Early outgrowth endothelial progenitor cells were enumerated on day 5.
# In each of the above assays, the total number of colony forming units mobilised is calculated according to the number of colonies per plate×by the total number of leukocytes mobilized/number of cells seeded.
# Mice were anaesthetised and the femoral artery and vein was cannulated such that the femoral bone marrow could be perfused (Martin et al, (2006) Br. J. Haem. 134: 326-329). […]
# Mice were injected i.p. with the CXCR4 antagonist, AMD3100, (or vehicle control) and 1 h later the mice were killed. Blood was collected by cardiac puncture and stem cell numbers in the blood were determined. […]
substance,measurement,setting,value
VEGF,SPC mobilization from the bone marrow,[1]; agent alone (CXCR4 antagonist 0.1 mM infused 10 min; G-CSF or VEGF pre-treatment 4 days),HPCs and SPCs were not mobilized
same,"SPC mobilization, acute administration","[1]; growth factor (50 nM) infused acutely, alone or in combination with CXCR4 antagonist, FIG. 31c","neither growth factor, when administered acutely or in combination with the CXCR4 antagonist led to mobilization of SPCs"
same,SPC mobilization from the bone marrow,"[1]; growth factor pre-treatment 4 days, then CXCR4 antagonist infused",SPCs were mobilized
same,proportion of Gr-1+ bone marrow neutrophils expressing CXCR2,[2],did not affect either the proportion of Gr-1^+ bone marrow neutrophils expressing CXCR2
same,ability of bone marrow neutrophils to migrate towards KC in vitro,[3],did not affect
same,percentage of CD34+ VEGFR2+ EPCs in S/G2/M phase of the cell-cycle,[4],did not alter the percentage of CD34^+ VEGFR2^+ EPCs in the S/G2/M phase
same,circulating numbers of HPCs,[5],did not increase circulating numbers of HPCs
same,EPC mobilization,[6],additive effect of AMD3100 and VEGF with respect to EPC mobilization

# From patent US8440199B2, “Methods for mobilizing mesenchymal stem cells in a patient” (Imperial Innovations Limited, priority 2007, dated 2013)
